Data set [1] concerns human IgG HS-2. Put plainly: Irreversible inhibition of HS-2 IgG-catalyzed [Tyr10-125I]-VIP cleavage. To be noted: for IC50: IgG 2 μM preincubated 16 h with CRA, unreacted CRA removed. Format: biochemical. On the procedure:
FIG. 23. Inhibition of polyclonal antibody catalyzed VIP cleavage by VIP-CRA 3 and hapten CRA 1. Panel A: Reversed-phase HPLC profiles showing cleavage of [Tyr^10-^125I]-VIP at multiple sites by human IgG HS-2. [Tyr^10-^1251I]-VIP incubated in the presence (●) or absence (◯) of HS-2 IgG (2 μM) for 16 h and subjected to HPLC [Nova-pak C, 3.9×150 mm; 0.1% TFA in water: 0.1% TFA in 80% acetonitrile 95:5 for 10 min, 95:5 to 30:70 in 55 min, 30:70 to 0:100 in 5 min, 0:100 for 5 min (0.5 ml/min)]. Shown are values of ^125I radioactivity recovered in the HPLC fractions (0.5 ml). Panel B: Irreversible inhibition of HS-2 IgG-catalyzed [Tyr^10-^125I]-VIP cleavage by VIP-CRA 3 and hapten CRA 1. IgG (2 μM) was preincubated for 16 h in the absence or presence of increasing concentrations of VIP-CRA 3 (●) or hapten CRA 1 (◯). Following removal of unreacted CRA by chromatography on immobilized Protein G, the residual catalytic activity of the IgG was measured using [Tyr^10-^125I]-VIP as substrate. Data are means±SD. Control HS-2 IgG incubated in the absence of CRAs cleaved 2791 c.p.m. [Tyr^10-^125I]-VIP.
Preparation and assay of cleavage of [Tyr^10-^125I]-VIP were described previously (24). To determine if the CRAs inhibit Abs irreversibly, IgG (2 μM) was incubated (37° C.) with 1 or 3 for 16 h in 50 mM Tris.HCl-0.1M Gly (pH 8.0) containing 2.5% DMSO and 0.025% Tween 20. Unreacted 1 or 3 was then removed by chromatography of the reaction mixtures (0.2 ml) on protein G columns as in ref35 (50 μl settled gel; washed with 0.8 ml 50 mM Tris.HCl, pH 7.4; eluted with 0.2 ml 0.1 M Gly.HCl, pH 2.7; neutralized with 1M Tris.HCl, pH 9). Fifty μl aliquots of the recovered IgG (and IgG-CRA complexes) were incubated with [Tyr^10-^125I]-VIP (86,000 c.p.m.) for 18 h and peptide cleavage was determined by measuring the radioactivity soluble in trichloroacetic acid. Control IgG samples were incubated without CRA, chromatographed and analyzed for VIP cleaving activity in the same way.

The target of data set [2] is exEGFR protein CRA IV (human) (UniProt P00533).
Data set [3] addresses HIV-1 gp120 (MN strain, recombinant, baculovirus expression system) (HIV-1, MN strain) (UniProt P05877). Put plainly: ELISA, serum 1:100, immobilized gp120.
For data set [4], the target named is gp120-CRA III (HIV-1, MN strain) (UniProt P05877). Kind of data set: ELISA, serum 1:100, immobilized III. (ELISA stands for enzyme-linked immunosorbent assay.)
Data set [5] relates to murine splenocytes. Put plainly: Hapten CRA I staining of splenocytes / B cells (microscopy, flow cytometry, extract affinity chromatography).
In data set [6] the test system is polyclonal murine IgM. Format: biochemical, mouse.
For data set [7], the system named is IgG. The data set is classed as biochemical, human.
Data set [8] concerns peptide-AMC substrates. Put plainly: Peptide-AMC cleavage by IgM, IgG and Fab (fluorimetry). The data set is classed as biochemical. To be noted: 675 nM pepsin; other conditions as FIG. 31B.
Data set [9] has as its system anti-VIP IgG c23.5 light chain. The data set is classed as binding, mouse.
A short description of data set [10]: Irreversible hapten CRA I binding by IgG, scFv and trypsin (SDS-electrophoresis of biotin-containing adducts). To be noted: CRA I 100 μM; linear regression of FIG. 8B data.

Where only a bound is given, the exact number is not on record here.

With “VIP-CRA 3: N-terminally biotinylated VIP with amidino phosphonate diester on the Lys20 side chain; called VIP-CRA 4 in Examples VI, XI”, in [1] (IgG 2 μM preincubated 16 h), the “VIP-CRA concentration giving near-complete inhibition of catalysis” value was greater than 20 µM. The same molecule returned an IC50 in data set [1] of 7 µM.

“nonimmune mouse IgG / nonimmune mouse serum (antibody)”: the kobs (pseudo-first order rate constant for accumulation of adducts) in data set [2] was less than 0.0072 h⁻¹. Moreover, the A490 is 0.001 A490 in data set [3] and -0.002 A490 in data set [4].

Turning to `N=C(N)c1ccc(C(NC(=O)CCCCCNC(=O)CCCC[C@@H]2SC[C@@H]3NC(=O)N[C@@H]32)P(=O)(Oc2ccccc2)Oc2ccccc2)cc1` (stereo partly drawn) [hapten CRA I, Diphenyl N-(6-biotinamidohexanoyl)amino(4-amidinophenyl)methanephosphonate], in data set [5], the “cell viability following incubation (trypan blue exclusion)” value is reported as “No loss of viability”. Besides, in data set [5] (3 repeat experiments), the “CRA I-stained cells positive for B cell marker CD19” value was 82±4%. The “total CRA content of B cells adsorbed by immobilized Abs to μ and κ/λ chains” value in [5] (B cell extract, densitometry) is “Eighty”. Besides, the “cells displaying intense staining” value in data set [5] (N 3 experiments, counting 400 lymphocytes, UV microscope) was 11±2. For the same molecule, in data set [5] (flow cytometry), the “minority subpopulation with very high fluorescence intensity” value came to 14%. For the same molecule, in [5] (flow cytometry, 100 μM, 4 hours), the “CRA I-treated cells with fluorescence intensity exceeding compound II-treated cells” value is “Seventy nine”. For the same molecule, the “inhibition of murine IgM activity” value in data set [6] was 9-100%. In addition, the IC50 in data set [6] (read-out: IC50, murine IgM Glu-Ala-Arg-AMC cleavage) was found to be 42 µM; in [1], 36 µM. In data set [7], the “effect on IgG-catalyzed peptide-MCA cleavage” value was “inhibited”.

Take “pepsin: purified porcine pepsin used as control”: in data set [8], the “cleavage of Glu-Ala-Arg-AMC by pepsin” value is reported as “did not cleave”.

Take vasoactive intestinal peptide [VIP]: the “inhibition of formation of VIP-CRA 3 adducts with anti-VIP light chain” value in data set [9] is reported as 41.0±7%.

B1: trypsin: porcine trypsin, type IX, Sigma (protein, UniProt P00761 9-231, looked up)
Trypsin: IVGGYTCAANSIPYQVSLNSGSHFCGGSLINSQWVVSAAHCYKSRIQVRLGEHNIDVLEGNEQFINAAKIITHPNFNGNTLDNDIMLIKLSSPATLNSRVATVSLPRSCAAAGTECLISGWGNTKSSGSSYPSLLQCLKAPVLSDSSCKSSYPGQITGNMICVGFLEGGKDSCQGDSGGPVVCNGQLQGIVSWGYGCAQKNKPGVYTKVCNYVNWIQQTIAAN
As to B1, the “velocity of covalent I adduct formation” value in data set [10] turned out to be 11.9±0.6 AAU/min.

As usually defined, the IC50 is the point on the concentration scale where inhibition reaches its midpoint.

Source of the values: patent publication US8980646B2, “Proteolytic and covalent antibodies” (priority 2003, dated 2015).
